Data set [1] can be described thus: in vivo resorption examination in mice: serum concentration determined microbiologically from inhibition zones. On the set-up: species or system Male CFLP mice. The settings on record: for resorption: in vivo, comparison in words; for concentration at 0.5 h: 0.5 hour after treatment, as oxolinic acid; for concentration at 0.5 h / concentration at 1 h / concentration at 2 h / concentration at 3 h / concentration at 4 h: read-out: Plasma concentrations from the calibration curve; for concentration at 1 h: 1 hour after treatment; for concentration at 2 h: 2 hours after treatment; for concentration at 3 h: 3 hours after treatment; for concentration at 4 h: 4 hours after treatment; for Diameters of the inhibition zones: parallels a, b, c. How it is done:
Male CFLP mice with 25 g of an average body weight were used for these experiments. After starving for 12 hours, the animals were given oxolinic acid or choline oxolinate, respectively in a volume of 2 ml/100 g of body weight as an aqueous suspension containing 1 % of methylcellulose. The doses administered were 50 mg/kg of body weight of oxolinic acid or 70 mg/kg of body weight of choline oxolinate, respectively. )These doses are equimolar as calculated for oxolinic acid.) At 0.5, 1, 2, 3 or 4 hours, respectively after treatment the animals were killed, their blood were centrifuged and the serum were used for the microbiological determination of the concentration.
The examinations were carried out in three parallels. 50/ul of the serum were applied to an agar gel plate containing Proteus Mirabilis in a concentration of 10^7 germs/ml. Simultaneously, a calibration curve was taken up with 50 ul each of suspensions containing oxolinic acid in a concentration of 1, 2, 4, 5, 10, 50 and 100 ug/ml, respectively. The serum concentrations were calculated from the average of diameters of the inhibition zones by using the calibration curve.
(§1) The calibration values are shown in Table I and in Figue 3, respectively. The results of determinations are summarized in Tables II and III and in Figure 4, respectively.

The nature of data set [2]: solubility of the substance in water and solvents.
A further data set relates to Proteus Mirabilis. Put plainly: calibrating series on agar gel plate: inhibition zone against concentration. The settings on record: 50 ul applied, 2 parallels. The format is cell-based. As for the experimental part:
[…] 50/ul of the serum were applied to an agar gel plate containing Proteus Mirabilis in a concentration of 10^7 germs/ml. Simultaneously, a calibration curve was taken up with 50 ul each of suspensions containing oxolinic acid in a concentration of 1, 2, 4, 5, 10, 50 and 100 ug/ml, respectively. The serum concentrations were calculated from the average of diameters of the inhibition zones by using the calibration curve.
as §1

Where [3] appears, read: mouse, serum, 50 mg/kg oxolinic acid or 70 mg/kg choline oxolinate.
The mark [4] stands for this setting: serum sampled at 1.0 hour, 50 mg/kg oxolinic acid or 70 mg/kg choline oxolinate.
Where [5] appears, read: serum sampled at 2.0 hour, 50 mg/kg oxolinic acid or 70 mg/kg choline oxolinate.
[6] abbreviates: serum sampled at 3.0 hour, 50 mg/kg oxolinic acid or 70 mg/kg choline oxolinate.
Setting [7] is: serum sampled at 4.0 hour, 50 mg/kg oxolinic acid or 70 mg/kg choline oxolinate.

Where “and” joins values, the source holds several entries; their conditions need not be identical. Equal entries are not always repeated. Structures can show the parent of a compound that is named as a salt. Where only a bound is given, the exact number is not on record here.

In the case of `CCn1cc(C(=O)O)c(=O)c2cc3c(cc21)OCO3` [choline oxolinate, 2-hydroxyethyl-trimethylammonium salt of 1-ethyl-3-carboxy-4-oxo-6,7-methylenedioxy-1,4-dihydroquinoline], in data set [1], the resorption result is reported as “substantially better resorbed”. Also, in data set [1] (mice, compared with administration of oxolinic acid), the bioavailability entry is “sigrificantly higher”. Also, the concentration at 0.5 h in data set [1] (setting [3]) was found to be 56000 ng/mL. The concentration at 1 h in data set [1] (setting [3]) was determined as 26000 ng/mL. Further, the concentration at 2 h in data set [1] (setting [3]) stood at 15000 ng/mL. The concentration at 3 h in data set [1] (setting [3]) stood at 6600 ng/mL. Also, the concentration at 4 h in data set [1] (setting [3]) came to 3100 ng/mL. Further, the Tmax in data set [1] (mouse, serum, mice, 70 mg/kg choline oxolinate, first sampling, read-out: time at which a high level of serum concentration was reached) is no more than 30 min. The “Diameters of the inhibition zones” value in data set [1] (serum sampled at 0.5 hour, equimolar doses: 50 mg/kg oxolinic acid or 70 mg/kg choline oxolinate, 50 ul serum on Proteus Mirabilis plate) was 22.6 mm and 21.9 mm; in data set [1] (setting [4]) it was 19.3 mm and 19.1 mm and 20.9 mm; in data set [1] (setting [5]), 18.2 mm and 17.8 mm; in data set [1] (setting [6]) it was 13.9 mm and 15.3 mm and 11.4 mm; in data set [1] (setting [7]) it was 11.7 mm and 14.3 mm. Besides, the “solubility (in words)” value is recorded as “insoluble” in data set [2] (acetone); “dissolves well” in data set [2] (chloroform); “dissolves well” in data set [2] (ethanol); “insoluble” in data set [2] (ether); “dissolves well” in data set [2] (water). In addition, the solubility in water result in data set [2] (water) is given as “higher than 1 g/ml”.

`CCn1cc(C(=O)O)c(=O)c2cc3c(cc21)OCO3` [oxolinic acid, 1-ethyl--3-carboxy-4-oxo-6,7-methylenedioxy-1,4-dihydroquinoline]: in the data set on Proteus Mirabilis (Proteus mirabilis, concentration 1 /ug/ml, read-out: Diameter of the inhibition zone), the zone of inhibition at 1 µg/mL was 8.6 mm. In addition, the zone of inhibition at 2 µg/mL with Proteus Mirabilis (Proteus mirabilis, concentration 2 /ug/ml, read-out: Diameter of the inhibition zone) turned out to be 11.6 mm. Moreover, the zone of inhibition at 4 µg/mL in the data set with Proteus Mirabilis (Proteus mirabilis, concentration 4 /ug/ml, read-out: Diameter of the inhibition zone) was determined as 14.4 mm. Further, the zone of inhibition at 5 µg/mL with Proteus Mirabilis (Proteus mirabilis, concentration 5 /ug/ml, read-out: Diameter of the inhibition zone) is 15 mm. For the same compound, the zone of inhibition at 10 µg/mL in the data set on Proteus Mirabilis (Proteus mirabilis, concentration 10 /ug/ml, read-out: Diameter of the inhibition zone) was determined as 17.9 mm. The zone of inhibition at 50 µg/mL in the data set with Proteus Mirabilis (Proteus mirabilis, concentration 50 /ug/ml, read-out: Diameter of the inhibition zone) was found to be 20.7 mm. Besides, in the data set on Proteus Mirabilis (Proteus mirabilis, concentration 100 /ug/ml, read-out: Diameter of the inhibition zone), the zone of inhibition at 100 µg/mL was 26.5 mm. Also, the “Diameter of the inhibition zone” value came out at 8.5 mm in the data set on Proteus Mirabilis (concentration 1 /ug/ml); 11.9 mm with Proteus Mirabilis (concentration 2 /ug/ml); 14.1 mm in the data set with Proteus Mirabilis (concentration 4 /ug/ml); 14.7 mm with Proteus Mirabilis (concentration 5 /ug/ml); 17.2 mm with Proteus Mirabilis (concentration 10 /ug/ml); 19.4 mm in the data set on Proteus Mirabilis (concentration 50 /ug/ml). Also, in the data set with Proteus Mirabilis (concentration 100 /ug/ml), the “Diameter of the inhibition zone” value is reported as 24.7 mm. The concentration at 0.5 h in data set [1] (setting [3]) was found to be 15000 ng/mL. Besides, in data set [1] (setting [3]), the concentration at 1 h is 14500 ng/mL. The concentration at 2 h in data set [1] (setting [3]) stood at 4600 ng/mL. Moreover, the concentration at 3 h in data set [1] (setting [3]) amounted to 4200 ng/mL. The concentration at 4 h in data set [1] (setting [3]) came to 4800 ng/mL. Also, the “Diameters of the inhibition zones” value in data set [1] (setting [4]) was 17.7 mm and 18.2 mm and 17.5 mm; in data set [1] (setting [5]) it was 15.3 mm and 17.4 mm and 8.8 mm; in data set [1] (setting [6]), 14.0 mm and 16.0 mm and 14.3 mm; in data set [1] (setting [7]) it was 16.8 mm and 14.7 mm and 14.1 mm. The solubility in water in data set [2] (water) was 6,5 /ug/ml.

Regarding `CCn1cc(C(=O)[O-])c(=O)c2cc3c(cc21)OCO3.[Na+]` [sodium oxolinate], in data set [1], the resorption result is recorded as “weaker than that of choline oxolinate”.

In general, zone of inhibition refers to the extent of the growth-free halo in a diffusion test.
